Measurements reported in PubChem BioAssay AID180 (DTP/NCI, 2004).
Where “and” joins values, the source holds several entries; their conditions need not be identical. Identical values can stand only once.

System: BDF1 mice, Adenocarcinoma 755 s.c., tumor weight T/C
Assay: NCI In Vivo Anticancer Drug Screen. Data for tumor model Adenocarcinoma 755 (subcutaneous) in B6D2F1 (BDF1) mice
Details: endpoint: mean tumor weight, higher = larger tumour
Procedure, shortened: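 Values express treated (T) relative to vehicle-dosed control (C) animals, based on survival or tumour size measured after compound treatment of mice bearing a transplanted tumour.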

[1] = dose: 5.0 mg/kg/injection, schedule: Q01DX011 (ip), vehicle: carboxymethylcellulose (CMC)
[2] = dose: 75.0 mg/kg/injection, schedule: Q01DX011 (ip), vehicle: carboxymethylcellulose (CMC)
[3] = dose: 60.0 mg/kg/injection, schedule: Q01DX011 (ip), vehicle: carboxymethylcellulose (CMC)

CCCCn1cnc2c(=S)nc[nH]c21
T/C (dose: 2.5 mg/kg/injection, schedule: Q01DX011 (ip), vehicle: carboxymethylcellulose (CMC)): 62 % of control | T/C [1]: 25 % of control | T/C (dose: 5.0 mg/kg/injection, schedule: Q01DX011 (ip), vehicle: olive oil, sesame oil, peanut oil): 41 % of control | T/C (dose: 5.0 mg/kg/injection, schedule: Q#A X022 (ip), vehicle: carboxymethylcellulose (CMC)): 4 % of control | T/C (dose: 8.0 mg/kg/injection, schedule: Q01DX011 (ip), vehicle: carboxymethylcellulose (CMC)): 32 % of control | T/C (dose: 10.0 mg/kg/injection, schedule: Q01DX006 (iv), vehicle: carboxymethylcellulose (CMC)): 20 % of control | T/C (dose: 10.0 mg/kg/injection, schedule: Q01DX011 (im), vehicle: carboxymethylcellulose (CMC)): 5 % of control | T/C (dose: 10.0 mg/kg/injection, schedule: Q01DX011 (ip), vehicle: carboxymethylcellulose (CMC)): 2 % of control | T/C (dose: 10.0 mg/kg/injection, schedule: Q01DX011 (ip), vehicle: olive oil, sesame oil, peanut oil): 14 % of control | T/C (dose: 10.0 mg/kg/injection, schedule: Q#A X022 (ip), vehicle: carboxymethylcellulose (CMC)): 1 % of control | T/C (dose: 16.0 mg/kg/injection, schedule: Q01DX011 (ip), vehicle: carboxymethylcellulose (CMC)): 8 % of control | T/C (dose: 20.0 mg/kg/injection, schedule: Q01DX006 (iv), vehicle: carboxymethylcellulose (CMC)): 6 % of control | T/C (dose: 20.0 mg/kg/injection, schedule: Q01DX011 (im), vehicle: carboxymethylcellulose (CMC)): 2 % of control | T/C (dose: 20.0 mg/kg/injection, schedule: Q01DX011 (ip), vehicle: carboxymethylcellulose (CMC)): 1 % of control | T/C (dose: 20.0 mg/kg/injection, schedule: Q#A X022 (ip), vehicle: carboxymethylcellulose (CMC)): 2 % of control | T/C (dose: 25.0 mg/kg/injection, schedule: Q01DX011 (ip), vehicle: carboxymethylcellulose (CMC)): 6 % of control | T/C (dose: 27.0 mg/kg/injection, schedule: Q01DX001 (ip), vehicle: carboxymethylcellulose (CMC)): 73 % of control | T/C (dose: 32.0 mg/kg/injection, schedule: Q01DX011 (ip), vehicle: carboxymethylcellulose (CMC)): 3 % of control | T/C (dose: 40.0 mg/kg/injection, schedule: Q01DX006 (iv), vehicle: carboxymethylcellulose (CMC)): 1 % of control | T/C (dose: 40.0 mg/kg/injection, schedule: Q01DX011 (im), vehicle: carboxymethylcellulose (CMC)): 2 % of control | T/C (dose: 40.0 mg/kg/injection, schedule: Q#A X022 (ip), vehicle: carboxymethylcellulose (CMC)): 1 % of control | T/C (dose: 54.0 mg/kg/injection, schedule: Q01DX001 (ip), vehicle: carboxymethylcellulose (CMC)): 59 % of control | T/C (dose: 64.0 mg/kg/injection, schedule: Q01DX011 (ip), vehicle: carboxymethylcellulose (CMC)): 3 % of control | T/C [2]: 4 % of control | T/C (dose: 107.0 mg/kg/injection, schedule: Q01DX001 (ip), vehicle: carboxymethylcellulose (CMC)): 8 % of control | T/C (dose: 214.0 mg/kg/injection, schedule: Q01DX001 (ip), vehicle: carboxymethylcellulose (CMC)): 5 % of control

Cc1ccc(N2CCN(CCCN3CCN(c4ccccc4Cl)CC3)CC2)cc1
T/C (dose: 6.0 mg/kg/injection, schedule: Q01DX011 (ip), vehicle: carboxymethylcellulose (CMC)): 84 % of control | T/C (dose: 11.0 mg/kg/injection, schedule: Q01DX011 (ip), vehicle: methylcellulose (MC)): 29 % of control | T/C (dose: 12.0 mg/kg/injection, schedule: Q01DX011 (ip), vehicle: carboxymethylcellulose (CMC)): 64 % of control | T/C (dose: 22.0 mg/kg/injection, schedule: Q01DX011 (ip), vehicle: methylcellulose (MC)): 34 % of control | T/C (dose: 22.5 mg/kg/injection, schedule: Q01DX011 (ip), vehicle: carboxymethylcellulose (CMC)): 50 % of control and 55 % of control | T/C (dose: 22.5 mg/kg/injection, schedule: Q01DX011 (ip), vehicle: other): 93 % of control | T/C (dose: 24.0 mg/kg/injection, schedule: Q01DX011 (ip), vehicle: carboxymethylcellulose (CMC)): 65 % of control | T/C (dose: 45.0 mg/kg/injection, schedule: Q01DX011 (ip), vehicle: carboxymethylcellulose (CMC)): 50 % of control and 59 % of control | T/C (dose: 45.0 mg/kg/injection, schedule: Q01DX011 (ip), vehicle: methylcellulose (MC)): 12 % of control | T/C (dose: 45.0 mg/kg/injection, schedule: Q01DX011 (ip), vehicle: other): 69 % of control | T/C (dose: 48.0 mg/kg/injection, schedule: Q01DX011 (ip), vehicle: carboxymethylcellulose (CMC)): 63 % of control | T/C (dose: 90.0 mg/kg/injection, schedule: Q01DX011 (ip), vehicle: carboxymethylcellulose (CMC)): 43 % of control and 62 % of control | T/C (dose: 96.0 mg/kg/injection, schedule: Q01DX011 (ip), vehicle: carboxymethylcellulose (CMC)): 43 % of control

CNc1ncnc2c1ncn2C1CCCO1 (configuration not stated)
T/C (dose: 50.0 mg/kg/injection, schedule: Q01DX011 (ip), vehicle: saline): 119 % of control | T/C (dose: 100.0 mg/kg/injection, schedule: Q01DX011 (ip), vehicle: saline): 86 % of control | T/C (dose: 200.0 mg/kg/injection, schedule: Q01DX011 (ip), vehicle: saline): 51 % of control

Nc1nc(N)c(N)c(Nc2ccc(Br)cc2)n1
T/C (dose: 15.0 mg/kg/injection, schedule: Q01DX011 (ip), vehicle: saline): 91 % of control | T/C (dose: 31.0 mg/kg/injection, schedule: Q01DX011 (ip), vehicle: saline): 32 % of control

CCCCCCCCCCCCCCCCC(C(=O)O)C(O)(CC(=O)O)C(=O)O (configuration not stated)
T/C (dose: 19.0 mg/kg/injection, schedule: Q01DX011 (ip), vehicle: carboxymethylcellulose (CMC)): 96 % of control | T/C (dose: 37.5 mg/kg/injection, schedule: Q01DX011 (ip), vehicle: carboxymethylcellulose (CMC)): 49 % of control | T/C [2]: 59 % of control

Cc1ccc(S(=O)(=O)OCC2OC(n3cnc4c(=O)[nH]c(N)nc43)C(O)C2O)cc1 (configuration not stated)
T/C [1]: 108 % of control | T/C (dose: 30.0 mg/kg/injection, schedule: Q01DX011 (ip), vehicle: carboxymethylcellulose (CMC)): 97 % of control | T/C [3]: 100 % of control | T/C (dose: 120.0 mg/kg/injection, schedule: Q01DX011 (ip), vehicle: carboxymethylcellulose (CMC)): 98 % of control | T/C (dose: 240.0 mg/kg/injection, schedule: Q01DX011 (ip), vehicle: carboxymethylcellulose (CMC)): 62 % of control

N#[N+]c1n[nH]nc1C(N)=O
T/C (dose: 6.25 mg/kg/injection, schedule: Q01DX011 (ip), vehicle: carboxymethylcellulose (CMC)): 94 % of control | T/C (dose: 12.5 mg/kg/injection, schedule: Q01DX011 (ip), vehicle: carboxymethylcellulose (CMC)): 63 % of control

Nc1nc2c(nnn2C2OC(CO)C(O)C2O)c(=O)[nH]1 (configuration not stated)
T/C (dose: 12.0 mg/kg/injection, schedule: Q01DX011 (ip), vehicle: methylcellulose (MC)): 38 % of control

CS(=O)(=O)OCC(=O)NCCNC(=O)COS(C)(=O)=O
T/C (dose: 8.75 mg/kg/injection, schedule: Q01DX011 (ip), vehicle: carboxymethylcellulose (CMC)): 107 % of control | T/C (dose: 17.5 mg/kg/injection, schedule: Q01DX011 (ip), vehicle: carboxymethylcellulose (CMC)): 50 % of control | T/C (dose: 35.0 mg/kg/injection, schedule: Q01DX011 (ip), vehicle: carboxymethylcellulose (CMC)): 49 % of control | T/C (dose: 40.0 mg/kg/injection, schedule: Q01DX011 (ip), vehicle: carboxymethylcellulose (CMC)): 61 % of control | T/C [3]: 20 % of control | T/C (dose: 70.0 mg/kg/injection, schedule: Q01DX011 (ip), vehicle: carboxymethylcellulose (CMC)): 12 % of control | T/C (dose: 95.0 mg/kg/injection, schedule: Q01DX011 (ip), vehicle: carboxymethylcellulose (CMC)): 9 % of control | T/C (dose: 140.0 mg/kg/injection, schedule: Q01DX011 (ip), vehicle: carboxymethylcellulose (CMC)): 2 % of control and 6 % of control | T/C (dose: 210.0 mg/kg/injection, schedule: Q01DX011 (ip), vehicle: carboxymethylcellulose (CMC)): 7 % of control

Nc1nc(SC2=NCCN2)c2[nH]cnc2n1
T/C (dose: 0.75 mg/kg/injection, schedule: Q01DX011 (ip), vehicle: carboxymethylcellulose (CMC)): 22 % of control | T/C (dose: 1.5 mg/kg/injection, schedule: Q01DX011 (ip), vehicle: carboxymethylcellulose (CMC)): 6 % of control | T/C (dose: 3.0 mg/kg/injection, schedule: Q01DX011 (ip), vehicle: carboxymethylcellulose (CMC)): 6 % of control | T/C (dose: 90.0 micrograms/kg/injection, schedule: Q01DX011 (ip), vehicle: carboxymethylcellulose (CMC)): 57 % of control | T/C (dose: 187.0 micrograms/kg/injection, schedule: Q01DX011 (ip), vehicle: carboxymethylcellulose (CMC)): 88 % of control | T/C (dose: 370.0 micrograms/kg/injection, schedule: Q01DX011 (ip), vehicle: carboxymethylcellulose (CMC)): 79 % of control | T/C (dose: 750.0 micrograms/kg/injection, schedule: Q01DX011 (ip), vehicle: carboxymethylcellulose (CMC)): 33 % of control

COC(=O)C1C2CC3c4[nH]c5cc(OC)ccc5c4CCN3CC2CC(OC(=O)c2cc(OC)c(OC)c(OC)c2)C1OC (configuration not stated)
T/C (dose: 0.5 mg/kg/injection, schedule: Q01DX011 (ip), vehicle: saline): 109 % of control | T/C (dose: 2.0 mg/kg/injection, schedule: Q01DX011 (ip), vehicle: saline): 101 % of control

Nc1nc(SCc2cccc([N+](=O)[O-])c2)c2[nH]cnc2n1
T/C (dose: 37.5 mg/kg/injection, schedule: Q01DX011 (ip), vehicle: methylcellulose (MC)): 41 % of control | T/C (dose: 75.0 mg/kg/injection, schedule: Q01DX011 (ip), vehicle: methylcellulose (MC)): 8 % of control | T/C (dose: 150.0 mg/kg/injection, schedule: Q01DX011 (ip), vehicle: methylcellulose (MC)): 3 % of control | T/C (dose: 300.0 mg/kg/injection, schedule: Q01DX011 (ip), vehicle: methylcellulose (MC)): 1 % of control
